The values below come from paper PMC12024577, “Synthesis and Antiproliferative Effects of Grossheimin-Derived Aminoanalogues” (Biomolecules, 2025).

Like-named read-outs stand apart in the source and are kept apart here.

For experiment [1], the system named is Colo205 (doxorubicin-sensitive human colon adenocarcinoma cell line). Briefly: MTT assay, cytotoxic effect on Colo205. The class given is cell-based. To be noted: COLO 205, 24 h incubation. As to the method:
(§1) The doxorubicin-sensitive Colo205 (ATCC-CCL-222) and the doxorubicin-resistant ABCB1- and LRP-expressing Colo320/MDR-LRP (ATCC-CCL-220.1) human colon adenocarcinoma cell lines were obtained from LGC Promochem in Teddington, UK. For culturing, the RPMI 1640 medium was applied and was supplemented with a 10% heat-inactivated foetal bovine serum (FBS), 2 mM L-glutamine, 1 mM Na-pyruvate and 10 mM HEPES along with nystatin and gentamicin.
(§2) The anticancer activity of the compounds was tested in 96-well flat-bottomed microtiter plates. In this assay, the two-fold serial dilutions of the compounds (concentration range: 100–0.19 μM) were made in a 100 μL RPMI 1640 medium. Next, 1 × 10^4 of human colonic adenocarcinoma cells (Colo205 or Colo320) in a 100 μL RPMI 1640 medium were added to each well except for the medium control wells. The starting concentration of the solvent DMSO in the plate was 2% v/v. The samples were incubated at 37 °C for 24 h. At the end of the incubation, 20 μL of an MTT (thiazolyl blue tetrazolium bromide) solution (from a 5 mg/mL stock solution) was pipetted to each well. After incubation at 37 °C for 4 h, 100 μL of a sodium dodecyl sulfate (SDS) solution (10% SDS in 0.01 M HCl) was pipetted to each well, and the plates were kept at 37 °C overnight. The growth of the cells was determined by measuring the optical density (OD) at 540 nm (refering to 630 nm) with a Multiscan EX ELISA reader (Thermo Labsystems, Cheshire, WA, USA). The inhibition of cell growth was calculated as IC50 values, defined as the inhibitory dose that reduces the growth of the cells exposed to the tested compounds by 50%. The IC50 values and the SD of the triplicate experiments were determined using GraphPad Prism software version 5.00 for Windows with a non-linear regression curve fit (GraphPad Software, San Diego, CA, USA; www.graphpad.com). Doxorubicin (from a 2 mg/mL stock solution, Teva Pharmaceuticals, Singapore) served as a positive control.
(§3) Since several sesquiterpene lactone-based aminoadducts exerted a significant cytotoxic action on different human cancer cell lines, the in vitro cytotoxic activities of the prepared grossheimin-based amino analogues were also tested on human colon adenocarcinoma lines, including Colo205 and Colo320 by MTT assay.
Background: Formazan colour is commonly taken as a measure of viable cells.

Experiment [2] relates to Colo320/MDR-LRP (doxorubicin-resistant ABCB1- and LRP-expressing human colon adenocarcinoma cell line). Description: MTT assay, cytotoxic effect on Colo320. The experiment is classed as cell-based. The following applies: COLO 320, 24 h incubation. As to the method:
as §1, §2, §3

A further experiment has as its system CDD-19Lu fibroblasts. Briefly: Cytotoxic effect on fibroblasts. The experiment is classed as cell-based. As to the method:
as §2
3. Cytotoxic effects of grossheimin-based aminoanalogues
Table S1. Cytotoxic effects of grossheimin-based aminoanalogues on colon adenocarcinoma cell lines and
CDD-19Lu fibroblasts. Doxorubicin (DOX) was applied as a positive control . n.d: not determined. Starting
concentration of grossheimin-based aminoanalogs and DOX in the assay with CDD-19Lu fibroblasts is 100 and […]

A further experiment relates to MDA-MB-231. Further details: method as in doi:10.14188/j.ajsh.2023.03.009. To be noted: cited from earlier work.
Experiment [3] concerns colorectal cancer HCT-116 cell lines. Also on record: method as in doi:10.14188/j.ajsh.2023.03.009. To be noted: cited from earlier work.
For experiment [4], the system named is human colon adenocarcinoma lines, including Colo205 and Colo320. Briefly: MTT assay, colon adenocarcinoma lines. The experiment is classed as cell-based. To be noted: text summary over Colo205 and Colo320, read-out: IC50 against colon adenocarcinoma cancers / malignant cell lines. How it is done:
as §1
The anticancer activity of the compounds was tested in 96-well flat-bottomed microtiter plates. In this assay, the two-fold serial dilutions of the compounds (concentration range: 100–0.19 μM) were made in a 100 μL RPMI 1640 medium. Next, 1 × 10^4 of human colonic adenocarcinoma cells (Colo205 or Colo320) in a 100 μL RPMI 1640 medium were added to each well except for the medium control wells. The starting concentration of the solvent DMSO in the plate was 2% v/v. The samples were incubated at 37 °C for 24 h. […] The growth of the cells was determined by measuring the optical density (OD) at 540 nm (refering to 630 nm) with a Multiscan EX ELISA reader (Thermo Labsystems, Cheshire, WA, USA). […] The IC50 values and the SD of the triplicate experiments were determined using GraphPad Prism software version 5.00 for Windows with a non-linear regression curve fit (GraphPad Software, San Diego, CA, USA; www.graphpad.com). […]

Setting [5] is: Homo sapiens, CCD 19Lu, fibroblasts, Table S1, starting concentration 100 (analogues) and 8.62 (DOX), read-out: IC50 CCD-19Lu.
Where [6] appears, read: Fibroblast, fibroblasts, Table 2, read-out: IC50 CDD-19Lu.

For `C=C1C[C@H](O)[C@@H]2[C@H](OC(=O)[C@H]2Cn2cnc3ccccc32)[C@H]2[C@H](C)[C@@H](O)C[C@@H]12` [Compound 16a], the IC50 (in experiment [1] (Table S1); in experiment [2] (Table S1); in the experiment on CDD-19Lu fibroblasts (setting [5])) was > 100 µM throughout.

As to `C=C1C[C@H](O)[C@@H]2[C@H](OC(=O)[C@H]2Cn2cnc3ccccc32)[C@H]2[C@H](C)C(=O)C[C@@H]12` [Compound 11f], the IC50 (in experiment [1] (Table S1); in experiment [2] (Table S1); with CDD-19Lu fibroblasts (setting [5])) was > 100 µM throughout.

Take `C=C1C[C@H](OC(C)=O)[C@@H]2[C@H](OC(=O)[C@H]2C)[C@H]2[C@H](C)[C@@H](OC(C)=O)C[C@@H]12` [Compound 4]: the IC50 (in experiment [1] (Table S1); in experiment [2] (Table S1); in the experiment on CDD-19Lu fibroblasts (setting [5])) was > 100 µM each time.

Turning to `C=C1C[C@H](O)[C@@H]2[C@H](OC(=O)[C@H]2CNC=O)[C@H]2[C@H](C)C(=O)C[C@@H]12` [Compound 7], the IC50 in experiment [1] (Table S1) and in experiment [2] (Table S1) was > 100 µM in each case.

As for `C=C1C(=O)O[C@H]2[C@H]1[C@@H](O)CC(=C)[C@@H]1C[C@H](O)[C@@H](C)[C@H]21` [Compound 12], the IC50 in experiment [1] (Table 2) was 63.8 ± 1.32 µM; in experiment [2] (Table 2), 53.6 ± 1.6 µM; with CDD-19Lu fibroblasts (setting [6]) it was > 100 µM.

As for `C=C1C[C@H](O)[C@@H]2[C@H](OC(=O)[C@H]2COC)[C@H]2[C@H](C)C(=O)C[C@@H]12` [Compound 10], the IC50 in experiment [1] (Table S1) and in experiment [2] (Table S1) was > 100 µM in each case.

As for `C=C1C[C@H](O)[C@@H]2[C@H](OC(=O)[C@H]2CNCc2ccccc2)[C@H]2[C@H](C)[C@@H](O)C[C@@H]12` [Compound 6], the IC50 (in experiment [1] (Table S1); in experiment [2] (Table S1); in the experiment on CDD-19Lu fibroblasts (setting [5])) was > 100 µM in each case.

Turning to `C=C1C(=O)O[C@H]2[C@H]1[C@@H](O)CC(=C)[C@@H]1CC(=O)[C@@H](C)[C@H]21` [Compound 1, Grossheimin], the IC50 in experiment [1] (Table 2) was 23.3 ± 2.05 µM; in experiment [2] (Table 2), 27.9 ± 2 µM; in the experiment on CDD-19Lu fibroblasts (Fibroblast, read-out: IC50 CDD-19Lu), > 100 µM; with MDA-MB-231 it was 16.9 µM; in experiment [3], 30.9 µM.

Take `C=C1C[C@H](O)[C@@H]2[C@H](OC(=O)[C@H]2CSCc2ccccc2)[C@H]2[C@H](C)[C@H](O)C[C@@H]12` [Compound 9]: the IC50 (in experiment [1] (Table S1); in experiment [2] (Table S1); in the experiment with CDD-19Lu fibroblasts (setting [5])) was > 100 µM each time.

Take `C=C1C(=O)O[C@H]2[C@H]1[C@@H](OC(C)=O)CC(=C)[C@@H]1CC(=O)[C@@H](C)[C@H]21` [Compound 2]: the IC50 in experiment [1] (Table 2) was 8.21 ± 0.51 µM; in experiment [2] (Table 2) it was 9.44 ± 0.41 µM; in the experiment with CDD-19Lu fibroblasts (setting [6]) it was > 100 µM; in experiment [4], ~9 µM.

In the case of `C=C1C(=O)O[C@H]2[C@H]1[C@@H](OC(C)=O)CC(=C)[C@@H]1C[C@H](OC(C)=O)[C@@H](C)[C@H]21` [Compound 13], the IC50 was 8.21 ± 0.51 µM in experiment [1] (Table 2), 6.98 ± 0.29 µM in experiment [2] (Table 2), 29.1 ± 0.46 µM in the experiment with CDD-19Lu fibroblasts (setting [6]) and ~8 µM in experiment [4].

As to `C=C1C[C@H](O)[C@@H]2[C@H](OC(=O)[C@H]2C)[C@H]2[C@H](C)[C@H](O)C[C@@H]12` [Compound 3], the IC50 (in experiment [1] (Table S1); in experiment [2] (Table S1); with CDD-19Lu fibroblasts (setting [5])) was > 100 µM in each case.

For `C=C1C[C@H](O)[C@@H]2[C@H](OC(=O)[C@H]2COC)[C@H]2[C@H](C)[C@@H](O)C[C@@H]12` [Compound 15], the IC50 in experiment [1] (Table S1) and in experiment [2] (Table S1) was > 100 µM throughout.

In the case of `C=C1C[C@H](O)[C@@H]2[C@H](OC(=O)[C@H]2CSCc2ccccc2)[C@H]2[C@H](C)C(=O)C[C@@H]12` [Compound 8], the IC50 (in experiment [1] (Table S1); in experiment [2] (Table S1); in the experiment with CDD-19Lu fibroblasts (setting [5])) was > 100 µM throughout.

For `C=C1C[C@H](O)[C@@H]2[C@H](OC(=O)[C@H]2CNC=O)[C@H]2[C@H](C)[C@@H](O)C[C@@H]12` [Compound 14], the IC50 in experiment [1] (Table S1) and in experiment [2] (Table S1) was > 100 µM in each case.

With `C=C1C[C@H](O)[C@@H]2[C@H](OC(=O)[C@H]2CNCc2ccccc2)[C@H]2[C@H](C)C(=O)C[C@@H]12` [Compound 5], the IC50 (in experiment [1] (Table S1); in experiment [2] (Table S1); with CDD-19Lu fibroblasts (setting [5])) was > 100 µM each time.

As for `COc1cccc2c1C(=O)c1c(O)c3c(c(O)c1C2=O)C[C@@](O)(C(=O)CO)C[C@@H]3O[C@H]1C[C@H](N)[C@H](O)[C@H](C)O1` [DOX, Doxorubicin, reference compound], the IC50 in experiment [1] (Table 2) is 3.21 ± 0.03 µM; in experiment [2] (Table 2), 4.36 ± 0.08 µM; with CDD-19Lu fibroblasts (setting [6]) it was > 8.62 µM.
